Assays:
Format in all cases: in vivo
Setaria faberi (SETFA) [1] = test: Post-emergence biological efficacy, glasshouse pot test; conditions: 312 h, post-emergence, 1,000 g/ha, evaluated after 13 days (100=total damage; 0=no damage), read-out: Percentage damage caused to weed species, SETFA
In short: (§1)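 Scored 13 days after spraying on a 0 (no damage) to 100 (total damage) scale. Treatment was a post-emergence spray at 1000 or 250 g/ha, from acetone/water 50:50 plus 0.5% Tween 20, onto 8-day-old plants in soil pots. Growth at 24/16° C, 14 h photoperiod, 65% humidity, watered twice daily.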

[2] = test system: Echinochloa crus-galli (ECHCG); test: as above; conditions: 312 h, post-emergence, 1,000 g/ha, evaluated after 13 days (100=total damage; 0=no damage), read-out: Percentage damage caused to weed species, ECHCG
In short: as §1

Solanum nigrum (SOLNI) [3] = test: as above; conditions: 312 h, post-emergence, 1,000 g/ha, evaluated after 13 days (100=total damage; 0=no damage), read-out: Percentage damage caused to weed species, SOLNI
In short: as §1

[4] = test system: Alopecurus myosuroides (ALOMY); test: as above; conditions: 312 h, post-emergence, 1,000 g/ha, evaluated after 13 days (100=total damage; 0=no damage), read-out: Percentage damage caused to weed species, ALOMY
In short: as §1

[5] = test system: Ipomea hederaceae (IPOHE); test: as above; conditions: Ipomoea hederacea, 312 h; post-emergence, 1,000 g/ha, evaluated after 13 days (100=total damage; 0=no damage); read-out: Percentage damage caused to weed species, IPOHE
In short: as §1

[6] = test system: Amaranthus retoflexus (AMARE); test: as above; conditions: Amaranthus retroflexus, 312 h; post-emergence, 1,000 g/ha, evaluated after 13 days (100=total damage; 0=no damage); read-out: Percentage damage caused to weed species, AMARE
In short: as §1

Setaria faberi (SETFA) [7] = test: Pre-emergence biological efficacy, glasshouse pot test; conditions: 312 h, pre-emergence, 1,000 g/ha, evaluated after 13 days (100=total damage; 0=no damage), read-out: Percentage damage SETFA
In short: (§2)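 Damage was rated on a 0–100 scale 13 days after treatment, with plants kept at 24/16° C, 14 h light and 65% humidity. The pre-emergence spray, at 1000 or 250 g/ha in acetone/water 50:50 with 0.5% Tween 20, was applied one day after sowing.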

[8] = test system: Echinochloa crus-galli (ECHCG); test: as above; conditions: 312 h, pre-emergence, 1,000 g/ha, evaluated after 13 days (100=total damage; 0=no damage), read-out: Percentage damage ECHCG
In short: as §2

Solanum nigrum (SOLNI) [9] = test: as above; conditions: 312 h, pre-emergence, 1,000 g/ha, evaluated after 13 days (100=total damage; 0=no damage), read-out: Percentage damage SOLNI
In short: as §2

[10] = test system: Alopecurus myosuroides (ALOMY); test: as above; conditions: 312 h, pre-emergence, 1,000 g/ha, evaluated after 13 days (100=total damage; 0=no damage), read-out: Percentage damage ALOMY
In short: as §2

[11] = test system: Ipomea hederaceae (IPOHE); test: as above; conditions: Ipomoea hederacea, 312 h; pre-emergence, 1,000 g/ha, evaluated after 13 days (100=total damage; 0=no damage); read-out: Percentage damage IPOHE
In short: as §2

[12] = test system: Amaranthus retoflexus (AMARE); test: as above; conditions: Amaranthus retroflexus, 312 h; pre-emergence, 1,000 g/ha, evaluated after 13 days (100=total damage; 0=no damage); read-out: Percentage damage AMARE
In short: as §2

SMILES	pest or weed control at 1000 g/ha (Setaria faberi (SETFA) [1]) [%]	pest or weed control at 1000 g/ha [2] [%]	pest or weed control at 1000 g/ha (Solanum nigrum (SOLNI) [3]) [%]	pest or weed control at 1000 g/ha [4] [%]	pest or weed control at 1000 g/ha [5] [%]	pest or weed control at 1000 g/ha [6] [%]	pest or weed control at 1000 g/ha (Setaria faberi (SETFA) [7]) [%]	pest or weed control at 1000 g/ha [8] [%]	pest or weed control at 1000 g/ha (Solanum nigrum (SOLNI) [9]) [%]	pest or weed control at 1000 g/ha [10] [%]	pest or weed control at 1000 g/ha [11] [%]	pest or weed control at 1000 g/ha [12] [%]
COC(=O)c1nc(C2CC2)nc(NCc2ccc(C(F)(F)F)nc2)c1Cl [Compound 4-159, 5-Chloro-2-cyclopropyl-6-methoxycarbonyl-4-(2-trifluoromethyl-pyrid-5-yl-methyl-amino)-pyrimidine]	70	80	80	30	80	90	0	30	20	10	70	0
COC(=O)c1nc(C2CC2)nc(NCc2ccncc2)c1Cl [Compound 4-160, 5-Chloro-2-cyclopropyl-6-methoxycarbonyl-4-(pyrid-4-yl-methyl-amino)pyrimidine]	80	70	80	40	90	100	50	60	90	20	100	70
COC(=O)c1nc(C2CC2)nc(NCc2cc3cc(Br)ccc3o2)c1Cl [Compound 4-164, 4-(5-Bromo-benzofuran-2-yl)methylamino-5-chloro-2-cyclopropyl-6-methoxycarbonyl-pyrimidine]	70	60	100	30	80	100	30	30	50	30	100	50
COC(=O)c1nc(C2CC2)nc(NCc2nc3ccccc3s2)c1Cl [Compound 4-168, 4-(Benzothiazol-2-ylmethylamino)-5-chloro-2-cyclopropyl-6-methoxycarbonyl-pyrimidine]	60	40	70	30	60	90	0	20	40	20	50	20
COC(=O)c1nc(C2CC2)nc(NC(C)C2CC2)c1Cl (stereo not drawn) [Compound 4-171, 5-Chloro-2-cyclopropyl-4-(1-cyclopropylethyl-amino)-6-methoxy-carbonylpyrimidine]	90	60	90	40	90	100	40	70	40	30	100	90
